Measurements as given in patent US20080161399A1 (Ajinomoto Co., Inc., priority 2005, published 2008).

Target: T1, plasma albumin (Rattus norvegicus, UniProt P02770)
T1 construct: from tissue; host or cells: plasma of SD rats (carbon tetrachloride cirrhosis model and healthy controls)
Test: L-tryptophan binding rate to plasma albumin (ultrafiltration, LC/MS)
Assay type: in vitro ADME
Details: 37° C., n=2
Experimental: As a cirrhosis model rat, 25-week-old male SD rats (n=2) were prepared by administering carbon tetrachloride twice a week for 18 consecutive weeks and used, and 10-week-old healthy SD rats (n=2) were used as a control.
The plasma was preincubated at 37° C. for 20 min, 10 μL of L-tryptophan solution (10 mM) was added per 1 mL of plasma and they were mixed well (A). Solution A (450 μL) was dispensed to an ultrafiltration tube (Millipore, molecular weight 30,000 cut) and centrifuged at 3,000 g for 5 min at 37° C. to give 50 μL of filtrate (B) and 50 μL of unfiltrated solution (C). An equivalent amount of 8% (w/v) TCA solution was added to each of A and B, mixed and the mixture was centrifuged at room temperature and 3,000 g for 5 min. A protein-free supernatant was recovered. Thereto was added a 4-fold amount of 0.125% (v/v) heptafluorobutyric acid (HFBA) solution, mixed, diluted with 0.1% HFBA so that the concentration would fall within the range defined by the standard curve. Then, the concentration of L-tryptophan in each sample was quantified by the LC/MS method. The L-tryptophan binding rate to plasma albumin was shown by [1-(Trp concentration (B)/Trp concentration (A))]×100(%). The recovery rate was calculated by [Trp concentration (B)×50 μL+Trp concentration (C)×400 μL]/[Trp concentration (A)×450 μL]×100(%).

T1 sequence (P02770 25-608): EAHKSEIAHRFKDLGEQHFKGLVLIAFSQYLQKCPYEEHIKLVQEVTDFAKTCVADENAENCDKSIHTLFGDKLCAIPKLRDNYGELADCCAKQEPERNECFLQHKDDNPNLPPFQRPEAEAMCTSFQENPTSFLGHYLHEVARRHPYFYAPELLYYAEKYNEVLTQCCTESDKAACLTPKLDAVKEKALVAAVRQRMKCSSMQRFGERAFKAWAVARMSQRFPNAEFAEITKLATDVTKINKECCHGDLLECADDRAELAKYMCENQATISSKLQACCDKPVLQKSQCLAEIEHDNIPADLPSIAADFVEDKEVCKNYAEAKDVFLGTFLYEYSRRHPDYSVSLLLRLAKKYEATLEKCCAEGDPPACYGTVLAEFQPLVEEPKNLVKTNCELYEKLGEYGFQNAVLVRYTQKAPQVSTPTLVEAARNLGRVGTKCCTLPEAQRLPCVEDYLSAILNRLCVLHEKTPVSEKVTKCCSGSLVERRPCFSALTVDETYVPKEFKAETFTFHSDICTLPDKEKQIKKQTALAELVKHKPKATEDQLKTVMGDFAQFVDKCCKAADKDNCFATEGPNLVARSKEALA

L-tryptophan binding rate to albumin (plasma of cirrhosis model rats (carbon tetrachloride, 18 weeks)): 48%
L-tryptophan binding rate to albumin (plasma of normal (healthy SD) rats): 83%
SMILES: N[C@@H](Cc1c[nH]c2ccccc12)C(=O)O [L-tryptophan]
